In patent publication US11529317B2, “Method of preparing silica nanocapsules and silica nanocapsules” (Agency for Science, Technology and Research, priority 2017, dated 2022):

Assay: Timed release of glycerol in aqueous media, standard enzymatic assay
Type: physicochemical
Conditions: control
Protocol: In this example, timed release studies were conducted on the glycerol loaded silica nanocapsules in accordance with various embodiments disclosed herein. Firstly, the synthesized silica nano lens particles were loaded with glycerol. Then, they were suspended in aqueous media and compared with controls.
The percentage of glycerol released from the lens-shaped particles over a period of 80 minutes is estimated using standard enzymatic assay and the results are shown in FIG. 12. […] On the other hand, encapsulated glycerol is released gradually from the lens-shaped particles over a period of approximately two hours.

OCC(O)CO [unencapsulated glycerol, glycerol]
dissolution of glycerol in water: instantly dissolves
